From patent US9850283B2, “Macrocyclic inhibitors of the PD-1/PD-L1 and CD80(B7-1)/PD-L1 protein/protein interactions” (BRISTOL-MYERS SQUIBB COMPANY, priority 2013, dated 2017)
Where two headings read alike, the source gives them in different places. Positions of bridges follow the written chain, without caps; N, C: chain ends. Non-standard residues stand in square brackets, D forms with d. Residues, ends and D or L forms follow the SMILES beside them. ξ: configuration not given here. Bip(2'-Me) = Cc1ccccc1-c1ccc(C[C@H](N)C(=O)O)cc1; Tyr(3-Br) = N[C@@H](Cc1ccc(O)c(Br)c1)C(=O)O; Phe(4-Cl) = N[C@@H](Cc1ccc(Cl)cc1)C(=O)O; Pro(4,4-F2) = O=C(O)[C@@H]1CC(F)(F)CN1; 1Nal = N[C@@H](Cc1cccc2ccccc12)C(=O)O; Bta = N[C@@H](Cc1csc2ccccc12)C(=O)O; Hyp = O=C(O)[C@@H]1C[C@@H](O)CN1; NMeF = CN[C@@H](Cc1ccccc1)C(=O)O; NMeE = CN[C@@H](CCC(=O)O)C(=O)O; NMeNle = CCCC[C@H](NC)C(=O)O; ξR = N=C(N)NCCCC(N)C(=O)O; NMeA = CN[C@@H](C)C(=O)O; Dab = NCC[C@H](N)C(=O)O; Dap = NC[C@H](N)C(=O)O; ξP = O=C(O)C1CCCN1; ξC = NC(CS)C(=O)O; ξS = NC(CO)C(=O)O; Sar = CNCC(=O)O

How the values were obtained:
Human PD-L1/PD-1 = biological target: T1, Human PD-L1/PD-1 (Homo sapiens, UniProt Q9NZQ7); test: HTRF PD-1-Ig/PD-L1-His binding assay (human PD-L1); settings: cluster symbol; read-out: HTRF IC50 cluster
T1 construct: made in house; host or cells: HEK293T
How it was run: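 Soluble Fc-fused PD-1 and His-tagged PD-L1 (truncated before the transmembrane region) were combined in dPBS with 0.1% (w/v) BSA and 0.05% (v/v) Tween-20. Binding was read by HTRF using europium cryptate anti-Ig antibody (1 nM final) and APC anti-His antibody (20 nM final).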

[1] = biological target: T2, LK35.2-hPD-L1 cells / PE-labeled PD-1-Ig (Homo sapiens, UniProt Q9NZQ7); test: LK35.2-hPD-L1 cell binding high-content screening assay; format: cell-based; settings: cluster symbol, read-out: CBA IC50 cluster
T2 construct: expressed in transfected cells; host or cells: LK35.2 mouse B cell line
How it was run: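 Mouse LK35.2 B cells stably over-expressing human PD-L1, cultured overnight, treated with compound plus PE-labeled human PD-1-Ig (1 nM final) in RPMI/10% FCS for 1 h at 37 °C. After washing, bound fluorescence quantified by high-content imaging.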

[2] = cell line of CBA not given (LK35.2-hPD-L1 or 293T-hPD-L1)
[3] = cell binding assay, cell line not given

T2 sequence (Q9NZQ7 19-290): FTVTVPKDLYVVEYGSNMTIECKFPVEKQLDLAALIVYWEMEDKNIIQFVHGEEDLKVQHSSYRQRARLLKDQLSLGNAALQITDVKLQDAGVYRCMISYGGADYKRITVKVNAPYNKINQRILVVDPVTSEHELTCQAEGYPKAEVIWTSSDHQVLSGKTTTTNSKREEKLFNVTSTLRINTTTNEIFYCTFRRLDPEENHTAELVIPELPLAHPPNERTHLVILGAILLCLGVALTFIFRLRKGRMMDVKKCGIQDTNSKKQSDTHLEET
T1 sequence (Q9NZQ7 with tags, fused parts or gaps): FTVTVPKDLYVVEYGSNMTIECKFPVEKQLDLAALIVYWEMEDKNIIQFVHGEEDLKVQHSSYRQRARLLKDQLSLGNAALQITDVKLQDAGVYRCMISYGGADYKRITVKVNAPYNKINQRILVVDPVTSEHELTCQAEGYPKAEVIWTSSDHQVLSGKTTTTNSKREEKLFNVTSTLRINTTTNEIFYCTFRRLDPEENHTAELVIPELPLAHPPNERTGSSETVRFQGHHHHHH

IC50 (Human PD-L1/PD-1)	IC50 [1, 2]	IC50 [1, 3]	Compound
0.385 to 6.74 nM	4.78 to 72.9 nM	–	CCCC[C@H]1C(=O)N(C)[C@@H](CCCC)C(=O)N[C@@H](CCCNC(=N)N)C(=O)N[C@H](C(=O)NCC(N)=O)CSCC(=O)N[C@@H](Cc2ccccc2)C(=O)N(C)[C@@H](C)C(=O)N[C@@H](CC(N)=O)C(=O)N2CCC[C@H]2C(=O)N[C@@H](Cc2cnc[nH]2)C(=O)N[C@@H](CCC(=O)O)C(=O)N(C)CC(=O)N[C@@H](Cc2c[nH]c3ccccc23)C(=O)N[C@@H](CO)C(=O)N[C@@H](Cc2c[nH]c3ccccc23)C(=O)N1C [Example 1054] ({CH2CO}-F[NMeA]NPHE[Sar]WSW[NMeNle][NMeNle]RCG-NH2; thioether N-14)
0.385 to 6.74 nM	–	4.78 to 72.9 nM	CCCC[C@H]1C(=O)N(C)[C@@H](CCCC)C(=O)N[C@@H](CCCNC(=N)N)C(=O)N[C@H](C(=O)NCC(N)=O)CSCC(=O)N[C@@H](Cc2ccc(Cl)cc2)C(=O)N(C)[C@@H](C)C(=O)N[C@@H](CC(N)=O)C(=O)N2CCC[C@H]2C(=O)N[C@@H](CN)C(=O)N[C@@H](CC(C)C)C(=O)N2C[C@H](O)C[C@H]2C(=O)N[C@@H](Cc2c[nH]c3ccccc23)C(=O)N[C@@H](CO)C(=O)N[C@@H](Cc2c[nH]c3ccccc23)C(=O)N1C [Example 7044] ({CH2CO}-[Phe(4-Cl)][NMeA]NP[Dap]L[Hyp]WSW[NMeNle][NMeNle]RCG-NH2; thioether N-14)
6.76 to 30.3 nM	–	4.78 to 72.9 nM	CCCC[C@H]1C(=O)N(C)CC(=O)N[C@@H](CC(=O)O)C(=O)N[C@@H](C(C)C)C(=O)N(C)[C@@H](Cc2ccccc2)C(=O)N[C@@H](Cc2ccc(O)cc2)C(=O)N(C)CC(=O)N[C@@H](Cc2cccc3ccccc23)C(=O)N[C@@H](Cc2ccc(O)cc2)C(=O)N[C@@H](CC(C)C)C(=O)N[C@H](C(=O)NCC(N)=O)CSCC(=O)N[C@@H](Cc2ccccc2)C(=O)N(C)[C@@H](Cc2ccccc2)C(=O)N1C [Example 3515] ({CH2CO}-F[NMeF][NMeNle][Sar]DV[NMeF]Y[Sar][1Nal]YLCG-NH2; thioether N-13)
> 30.5 nM	> 74.3 nM	–	CCCC[C@H]1C(=O)N(C)CC(=O)N[C@@H](CC(=O)O)C(=O)N[C@@H](COC)C(=O)N(C)[C@@H](Cc2ccccc2)C(=O)N[C@@H](Cc2ccc(O)cc2)C(=O)N(C)CC(=O)N[C@@H](Cc2c[nH]c3ccccc23)C(=O)N[C@@H](Cc2ccc(O)cc2)C(=O)N[C@@H](CC(C)C)C(=O)N[C@H](C(=O)NCC(N)=O)CSCC(=O)N[C@@H](Cc2ccccc2)C(=O)N(C)[C@@H](Cc2ccccc2)C(=O)N1C [Example 3155] ({CH2CO}-F[NMeF][NMeNle][Sar]DS(Me)[NMeF]Y[Sar]WYLCG-NH2; thioether N-13)
6.76 to 30.3 nM	4.78 to 72.9 nM	–	CCCC[C@H]1C(=O)N(C)[C@@H](CCCC)C(=O)N[C@@H](CCCNC(=N)N)C(=O)N[C@H](C(=O)NCC(N)=O)CSCC(=O)N[C@@H](Cc2ccccc2)C(=O)N(C)[C@@H](C)C(=O)N[C@@H](CC(N)=O)C(=O)N2CCC[C@H]2C(=O)N[C@@H](Cc2cnc[nH]2)C(=O)N[C@@H](CC(C)C)C(=O)N2CC(F)(F)C[C@H]2C(=O)N[C@@H](Cc2c[nH]c3ccccc23)C(=O)N[C@@H](CO)C(=O)N[C@@H](Cc2c[nH]c3ccccc23)C(=O)N1C [Example 1197] ({CH2CO}-F[NMeA]NPHL[Pro(4,4-F2)]WSW[NMeNle][NMeNle]RCG-NH2; thioether N-14)
6.76 to 30.3 nM	0.158 to 4.71 nM	–	CCCC[C@H]1C(=O)N(C)[C@@H](CCCC)C(=O)N[C@@H](CCCCN)C(=O)N[C@H](C(=O)NCC(N)=O)CSCC(=O)N[C@@H](Cc2ccc(O)cc2)C(=O)N(C)[C@@H](C)C(=O)N[C@@H](CC(N)=O)C(=O)N2CCC[C@H]2C(=O)N[C@@H](Cc2cnc[nH]2)C(=O)N[C@@H](CC(C)C)C(=O)N2CCC[C@H]2C(=O)N[C@@H](Cc2c[nH]c3ccccc23)C(=O)N[C@@H](CO)C(=O)N[C@@H](Cc2csc3ccccc23)C(=O)N1C [Example 1041] ({CH2CO}-Y[NMeA]NPHLPWS[Bta][NMeNle][NMeNle]KCG-NH2; thioether N-14)
0.385 to 6.74 nM	–	0.158 to 4.71 nM	CCCC[C@H]1C(=O)N(C)[C@@H](CCCC)C(=O)N[C@@H](CCN)C(=O)N[C@H](C(=O)NCC(N)=O)CSCC(=O)N[C@@H](Cc2ccc(O)c(Br)c2)C(=O)N(C)[C@@H](C)C(=O)N[C@@H](CC(N)=O)C(=O)N2CCC[C@H]2C(=O)N[C@@H](Cc2cnc[nH]2)C(=O)N[C@@H](CC(C)C)C(=O)N2C[C@H](O)C[C@H]2C(=O)N[C@@H](Cc2c[nH]c3ccccc23)C(=O)N[C@@H](CCN)C(=O)N[C@@H](Cc2c[nH]c3ccccc23)C(=O)N1C [Example 6036] ({CH2CO}-[Tyr(3-Br)][NMeA]NPHL[Hyp]W[Dab]W[NMeNle][NMeNle][Dab]CG-NH2; thioether N-14)
6.76 to 30.3 nM	4.78 to 72.9 nM	–	CCCC[C@H]1C(=O)N(C)[C@@H](CCCC)C(=O)N[C@@H](CCCNC(=N)N)C(=O)N[C@H](C(=O)NCC(N)=O)CSCC(=O)N[C@@H](Cc2ccccc2)C(=O)N(C)[C@@H](C)C(=O)N[C@@H](CC(N)=O)C(=O)N2CCC[C@H]2C(=O)N[C@@H](CCN)C(=O)N[C@@H](CC(C)C)C(=O)N(C)CC(=O)N[C@@H](Cc2c[nH]c3ccccc23)C(=O)N[C@@H](CO)C(=O)N[C@@H](Cc2c[nH]c3ccccc23)C(=O)N1C [Example 1062] ({CH2CO}-F[NMeA]NP[Dab]L[Sar]WSW[NMeNle][NMeNle]RCG-NH2; thioether N-14)
0.385 to 6.74 nM	4.78 to 72.9 nM	–	CCCC[C@H]1C(=O)N(C)CC(=O)N[C@@H](CC(=O)O)C(=O)N[C@@H](C(C)C)C(=O)N(C)[C@@H](Cc2ccccc2)C(=O)N[C@@H](Cc2ccc(O)cc2)C(=O)N(C)[C@@H](CCC(=O)O)C(=O)N[C@@H](Cc2csc3ccccc23)C(=O)N[C@@H](Cc2ccc(O)cc2)C(=O)N[C@@H](CC(C)C)C(=O)N[C@H](C(=O)NCC(N)=O)CSCC(=O)N[C@@H](Cc2ccccc2)C(=O)N(C)[C@@H](Cc2ccccc2)C(=O)N1C [Example 3073] ({CH2CO}-F[NMeF][NMeNle][Sar]DV[NMeF]Y[NMeE][Bta]YLCG-NH2; thioether N-13)
6.76 to 30.3 nM	4.78 to 72.9 nM	–	CCCC[C@@H]1NC(=O)[C@H](Cc2ccc(O)cc2)NC(=O)[C@H](Cc2c[nH]c3ccccc23)NC(=O)CN(C)C(=O)[C@H](Cc2ccc(O)cc2)NC(=O)[C@H](Cc2ccccc2)N(C)C(=O)[C@H](C(C)C)NC(=O)[C@H](CC(=O)O)NC(=O)CN(C)C(=O)[C@H](CCCC)N(C)C(=O)[C@H](Cc2ccccc2)N(C)C(=O)[C@H](Cc2ccccc2)NC(=O)CSC[C@@H](C(=O)NCC(N)=O)NC1=O [Example 3097] (HELM PEPTIDE1{[O=C(C[*:3])[*:2]].F.[meF].[CCCC[C@@H](C(=O)[*:2])N(C)[*:1]].[Sar].D.V.[meF].Y.[Sar].W.Y.[Nle].C.G.[am]}$PEPTIDE1,PEPTIDE1,1:R3-14:R3$$$V2.0)
> 30.5 nM	> 74.3 nM	–	CCCC[C@H]1C(=O)N(C)[C@@H](CCCC)C(=O)NC(CCCNC(=N)N)C(=O)NC(C(=O)NCC(N)=O)CSCC(=O)N[C@@H](Cc2ccccc2)C(=O)N(C)[C@@H](C)C(=O)N[C@@H](CC(N)=O)C(=O)N2CCCC2C(=O)N[C@@H](Cc2cnc[nH]2)C(=O)N[C@@H](CC(C)C)C(=O)N(C)CC(=O)N[C@@H](Cc2c[nH]c3ccccc23)C(=O)NC(CO)C(=O)N[C@@H](Cc2ccc(-c3ccccc3C)cc2)C(=O)N1C (stereo partly shown) [Example 1030] ({CH2CO}-F[NMeA]N[ξP]HL[Sar]W[ξS][Bip(2'-Me)][NMeNle][NMeNle][ξR][ξC]G-NH2; thioether N-14)
